The results in this text go back to patent US20230295200A1 (REGENTS OF THE UNIVERSITY OF MICHIGAN, priority 2022, published 2023).

Molecules are shown by their SMILES.

For this assay, the target named is T1, STAT6 protein (Homo sapiens, UniProt P42226).
T1 sequence (P42226 1-847): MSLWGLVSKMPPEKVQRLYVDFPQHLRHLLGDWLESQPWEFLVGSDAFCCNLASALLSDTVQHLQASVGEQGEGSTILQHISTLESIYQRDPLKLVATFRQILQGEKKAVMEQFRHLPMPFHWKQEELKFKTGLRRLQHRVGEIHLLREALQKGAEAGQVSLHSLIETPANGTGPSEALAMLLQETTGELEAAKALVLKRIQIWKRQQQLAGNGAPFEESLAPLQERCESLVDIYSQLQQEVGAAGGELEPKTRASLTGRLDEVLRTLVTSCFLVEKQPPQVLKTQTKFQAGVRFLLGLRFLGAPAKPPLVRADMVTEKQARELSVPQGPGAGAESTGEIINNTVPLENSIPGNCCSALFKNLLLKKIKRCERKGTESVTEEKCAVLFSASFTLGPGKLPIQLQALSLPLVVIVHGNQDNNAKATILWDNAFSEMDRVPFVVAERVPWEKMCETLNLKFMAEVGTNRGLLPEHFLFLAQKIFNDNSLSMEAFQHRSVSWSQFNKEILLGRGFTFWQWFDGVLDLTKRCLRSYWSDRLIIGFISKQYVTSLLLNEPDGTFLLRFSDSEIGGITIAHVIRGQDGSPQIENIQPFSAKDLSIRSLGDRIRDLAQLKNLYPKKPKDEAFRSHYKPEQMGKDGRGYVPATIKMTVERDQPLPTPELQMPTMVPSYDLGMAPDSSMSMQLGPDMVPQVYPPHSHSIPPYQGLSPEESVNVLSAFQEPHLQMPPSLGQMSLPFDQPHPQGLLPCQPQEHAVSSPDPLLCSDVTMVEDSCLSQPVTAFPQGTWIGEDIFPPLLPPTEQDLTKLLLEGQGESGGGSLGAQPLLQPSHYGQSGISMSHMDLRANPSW
Put plainly: Fluorescence polarization (FP) binding assay, STAT6. The conditions noted are these: FP competition, 5 nM fluorescein-labeled tracer, 200 nM protein, PBS pH7.4; read-out: Binding STAT6. As for the experimental part:
Evaluation of the activity of the inhibitors may be accomplished by fluorescence polarization (FP) experiments. A representative general protocol is the following:
Fluorescence polarization (FP) experiments are performed in black round-bottom plates using the CLARIOstar microplate reader. To each well, fluorescein-labeled tracer and STAT5 or STAT6 protein are added in assay buffer. […] The inhibition constants are determined as the concentration of the STAT5 or STAT6 at which 50% of the ligand is bound.
Fluorescence polarization (FP) experiments were performed in 96-well, black round-bottom plates (Microfluor 2, Fisher Scientific) using the CLARIOstar microplate reader (BMG Labtech). To each well, 5 nM of fluoresceinlabeled tracer and 200 nM of STAT5 and/or STAT6 protein were added to a final volume of 100 μl in the assay buffer (PBS pH7.4+0.01% BGG+0.01% Tween-20, 2 mM DTT). The plate was mixed on a shaker for 15 m and incubated at room temperature for 1 h to reach equilibrium. […] All experimental data were analyzed using Prism 8.0 software (GraphPad Software), and the inhibition constants were determined by nonlinear curve fitting as the concentration of the STAT5 and/or STAT6 at which 50% of the ligand is bound.
In the case of `CCOC(=O)CO[C@H]1C[C@@H](C(=O)N(C)c2ccc(Br)cc2)N(C(=O)[C@@H](NC(=O)c2cc3cc(C(F)(F)P(=O)(O)O)ccc3s2)C(C)(C)C)C1` [Compound 54, ((2-(((S)-1-((2S,4S)-2-((4-bromophenyl)(methyl)carbamoyl)-4-(2-ethoxy-2-oxoethoxy)pyrrolidin-1-yl)-3,3-dimethyl-1-oxobutan-2-yl)carbamoyl)benzo[b]thiophen-5-yl)difluoromethyl)phosphonic acid], the Ki was in the range of 0.1 to 1 µM. To `CCCN(C(=O)[C@@H]1C[C@H](OCC(=O)OCC)CN1C(=O)[C@@H](NC(=O)c1cc2cc(C(F)(F)P(=O)(O)O)ccc2s1)C(C)(C)C)c1ccc(Br)cc1` [Compound 55, ((2-(((S)-1-((2S,4S)-2-((4-bromophenyl)(propyl)carbamoyl)-4-(2-ethoxy-2-oxoethoxy)pyrrolidin-1-yl)-3,3-dimethyl-1-oxobutan-2-yl)carbamoyl)benzo[b]thiophen-5-yl)difluoromethyl)phosphonic acid] belongs 0.1 to 1 µM; to `CCOC(=O)CO[C@H]1C[C@@H](C(=O)N(CCC(=O)NC)c2ccc(Br)cc2)N(C(=O)[C@@H](NC(=O)c2cc3cc(C(F)(F)P(=O)(O)O)ccc3s2)C(C)(C)C)C1` [Compound 56, ((2-(((S)-1-((2S,4S)-2-((4-bromophenyl)(3-(methylamino)-3-oxopropyl)carbamoyl)-4-(2-ethoxy-2-oxoethoxy)pyrrolidin-1-yl)-3,3-dimethyl-1-oxobutan-2-yl)carbamoyl)benzo[b]thiophen-5-yl)difluoromethyl)phosphonic acid], 0.1 to 1 µM.

Regarding `CCOC(=O)CO[C@H]1C[C@@H](C(=O)N(CCC(=O)N(C)C)c2ccc(Br)cc2)N(C(=O)[C@@H](NC(=O)c2cc3cc(C(F)(F)P(=O)(O)O)ccc3s2)C(C)(C)C)C1` [Compound 57, ((2-(((S)-1-((2S,4S)-2-((4-bromophenyl)(3-(dimethylamino)-3-oxopropyl)carbamoyl)-4-(2-ethoxy-2-oxoethoxy)pyrrolidin-1-yl)-3,3-dimethyl-1-oxobutan-2-yl)carbamoyl)benzo[b]thiophen-5-yl)difluoromethyl)phosphonic acid], the Ki fell in the range of 0.1 to 1 µM. As to `CC(C)(C)[C@H](NC(=O)c1cc2cc(C(F)(F)P(=O)(O)O)ccc2s1)C(=O)N1Cc2ccccc2C[C@H]1C(=O)N1CCOC(c2cccnc2)C1` (stereo partly drawn) [Compound 217, ((2-(((2S)-3,3-dimethyl-1-oxo-1-((3S)-3-(2-(pyridin-3-yl)morpholine-4-carbonyl)-3,4-dihydroisoquinolin-2(1H)-yl)butan-2-yl)carbamoyl)benzo[b]thiophen-5-yl)difluoromethyl)phosphonic acid], the Ki is below 0.1 µM. In the case of `CC(C)(C)[C@H](NC(=O)c1cc2cc(C(F)(F)P(=O)(O)O)ccc2s1)C(=O)N1Cc2ccccc2C[C@H]1C(=O)N1CCOC(c2ccncc2)C1` (stereo partly drawn) [Compound 218, ((2-(((2S)-3,3-dimethyl-1-oxo-1-((3S)-3-(2-(pyridin-4-yl)morpholine-4-carbonyl)-3,4-dihydroisoquinolin-2(1H)-yl)butan-2-yl)carbamoyl)benzo[b]thiophen-5-yl)difluoromethyl)phosphonic acid], the Ki lay within 0.1 to 1 µM. With `CC(C)(C)[C@H](NC(=O)c1cc2cc(C(F)(F)P(=O)(O)O)ccc2s1)C(=O)N1Cc2ccccc2C[C@H]1C(=O)N1CCOC(c2nccs2)C1` (stereo partly drawn) [Compound 219, ((2-(((2S)-3,3-dimethyl-1-oxo-1-((3S)-3-(2-(thiazol-2-yl)morpholine-4-carbonyl)-3,4-dihydroisoquinolin-2(1H)-yl)butan-2-yl)carbamoyl)benzo[b]thiophen-5-yl)difluoromethyl)phosphonic acid], the Ki was below 0.1 µM. Take `CC(C)(C)[C@H](NC(=O)c1cc2cc(C(F)(F)P(=O)(O)O)ccc2s1)C(=O)N1Cc2ccccc2C[C@H]1C(=O)N1CCCOC(c2ccccc2)C1` (stereo partly drawn) [Compound 220, ((2-(((2S)-3,3-dimethyl-1-oxo-1-((3S)-3-(2-phenyl-1,4-oxazepane-4-carbonyl)-3,4-dihydroisoquinolin-2(1H)-yl)butan-2-yl)carbamoyl)benzo[b]thiophen-5-yl)difluoromethyl)phosphonic acid]: the Ki lay in the range of 0.1 to 1 µM. For the compound `CC(C)(C)[C@H](NC(=O)c1cc2cc(C(F)(F)P(=O)(O)O)ccc2s1)C(=O)N1Cc2ccccc2C[C@H]1C(=O)N1CCOC(Cc2ccccc2)C1` (stereo partly drawn) [Compound 221, ((2-(((2S)-1-((3S)-3-(2-benzylmorpholine-4-carbonyl)-3,4-dihydroisoquinolin-2(1H)-yl)-3,3-dimethyl-1-oxobutan-2-yl)carbamoyl)benzo[b]thiophen-5-yl)difluoromethyl)phosphonic acid], the Ki fell in the range of 0.1 to 1 µM. Consider `CC(C)(C)[C@H](NC(=O)c1cc2cc(C(F)(F)P(=O)(O)O)ccc2s1)C(=O)N1Cc2ccccc2C[C@H]1C(=O)N1CCOC(C2CCCCC2)C1` (stereo partly drawn) [Compound 222, ((2-(((2S)-1-((3S)-3-(2-cyclohexylmorpholine-4-carbonyl)-3,4-dihydroisoquinolin-2(1H)-yl)-3,3-dimethyl-1-oxobutan-2-yl)carbamoyl)benzo[b]thiophen-5-yl)difluoromethyl)phosphonic acid], for which the Ki was 0.1 to 1 µM. As for `CC(C)(C)[C@H](NC(=O)c1cc2cc(C(F)(F)P(=O)(O)O)ccc2s1)C(=O)N1Cc2ccccc2C[C@H]1C(=O)N1CCSC(c2ccccc2)C1` (stereo partly drawn) [Compound 223, ((2-(((2S)-3,3-dimethyl-1-oxo-1-((3S)-3-(2-phenylthiomorpholine-4-carbonyl)-3,4-dihydroisoquinolin-2(1H)-yl)butan-2-yl)carbamoyl)benzo[b]thiophen-5-yl)difluoromethyl)phosphonic acid], the Ki is below 0.1 µM.

For `CC(C)(C)[C@H](NC(=O)c1cc2cc(C(F)(F)P(=O)(O)O)ccc2s1)C(=O)N1Cc2ccccc2C[C@H]1C(=O)N1CCS(=O)(=O)[C@H](c2ccccc2)C1` [Compound 224, ((2-(((S)-1-((S)-3-((R)-1,1-dioxido-2-phenylthiomorpholine-4-carbonyl)-3,4-dihydroisoquinolin-2(1H)-yl)-3,3-dimethyl-1-oxobutan-2-yl)carbamoyl)benzo[b]thiophen-5-yl)difluoromethyl)phosphonic acid], the Ki was below 0.1 µM. For the compound `CC(C)(C)[C@H](NC(=O)c1cc2cc(C(F)(F)P(=O)(O)O)ccc2s1)C(=O)N1Cc2ccccc2C[C@H]1C(=O)N1CCS(=O)(=O)[C@@H](c2ccccc2)C1` [Compound 225, ((2-(((S)-1-((S)-3-((S)-1,1-dioxido-2-phenylthiomorpholine-4-carbonyl)-3,4-dihydroisoquinolin-2(1H)-yl)-3,3-dimethyl-1-oxobutan-2-yl)carbamoyl)benzo[b]thiophen-5-yl)difluoromethyl)phosphonic acid], the Ki was in the range of 0.1 to 1 µM. For the compound `CC1CN(C(=O)[C@@H]2Cc3ccccc3CN2C(=O)[C@@H](NC(=O)c2cc3cc(C(F)(F)P(=O)(O)O)ccc3s2)C(C)(C)C)CC(c2ccccc2)O1` (stereo partly drawn) [Compound 226, ((2-(((2S)-3,3-dimethyl-1-((3S)-3-(2-methyl-6-phenylmorpholine-4-carbonyl)-3,4-dihydroisoquinolin-2(1H)-yl)-1-oxobutan-2-yl)carbamoyl)benzo[b]thiophen-5-yl)difluoromethyl)phosphonic acid], the Ki was in the range of 0.1 to 1 µM.
